From patent US20260285853A1, “COMPOUNDS AND METHODS FOR MODULATING SPLICING” (REMIX THERAPEUTICS INC., priority 2023, published 2026)

What was measured:
Assay type in all cases: cell-based
[1] = tested on: HTT mRNA; assay: Gene panel canonical junction qPCR assay, decrease in CJ mRNA, Table 3
Procedure, shortened: (§1)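 IC50 denotes the concentration giving 50% decrease in canonical-junction mRNA, fitted by 4-parameter logistic to percentage response derived from ΔΔCt versus housekeeping gene and DMSO control. Cells (A673 or K562) exposed 24 h to 11-point 3-fold serial dilutions from 10 uM top, DMSO ≤0.25%; junction-spanning primer/probe qPCR.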

[2] = tested on: MYB mRNA; assay: as above
Procedure, shortened: as §1

[3] = tested on: SMN2 mRNA; assay: as above
Procedure, shortened: as §1

[4] = tested on: SH-SY5Y (human neuroblastoma) cells; assay: Cell viability, Cell Titer Glo 2.0 assay; settings: read-out: Viability SHSY5Y.3 GI50
Procedure, shortened: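 Viability was read by CellTiter-Glo 2.0 luminescence after a 72-hour compound exposure at 37° C. under 5% CO2. Cells were in IMDM plus 10% FBS containing 0.1% DMSO, and medium-only wells gave the blank.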

[5] = decrease in canonical junction (CJ) mRNA, gene panel qPCR, Table 3
[6] = decrease in CJ mRNA levels, canonical junction qPCR, gene panel

| Structure (SMILES) | IC50 [1, 5] | IC50 [2, 5] | IC50 [3, 5] | GI50 [4] | IC50 [1, 6] | IC50 [2, 6] | IC50 [3, 6] |
| --- | --- | --- | --- | --- | --- | --- | --- |
| Cc1cn2cc(NC(=O)c3ccc(N4CCNCC4=O)c4cn(C)nc34)cc(F)c2n1 [Compound 251, N-(8-fluoro-2-methylimidazo[1,2-a]-pyridin-6-yl)-2-methyl-4-(2-oxopiperazin-1-yl)-2H-indazole-7-carboxamide 2,2,2-trifluoroacetate] | > 10000 nM | > 10000 nM | 1000 to 10000 nM | > 10000 nM | – | – | – |
| CCNC1CCN(c2ccc(C(=O)Nc3cc(F)c4nc(C)cn4c3)c3c2nnn3C)CC1 [Compound 198, 4-(4-(ethylamino)piperidin-1-yl)-N-(8-fluoro-2-methylimidazo[1,2-a]pyridin-6-yl)-1-methyl-1H-benzo[d][1,2,3]triazole-7-carboxamide 2,2,2-trifluoroacetate] | > 10000 nM | > 10000 nM | > 10000 nM | > 10000 nM | – | – | – |
| Cc1cn2cc(NC(=O)c3ccc(C4CNCCO4)c4[nH]cnc34)cc(F)c2n1 (stereo not shown) [Compound 194, N-(8-fluoro-2-methyl-imidazo[1,2-a]pyridin-6-yl)-7-morpholin-2-yl-1H-benzimidazole-4-carboxamide] | 1000 to 10000 nM | 100 to 1000 nM | < 100 nM | 1000 to 10000 nM | – | – | – |
| Cc1cn2cc(NC(=O)c3ccc(N4C[C@@H](C)N[C@@H](C)C4)c4c3nnn4C)cc(F)c2n1 [Compound 635] | – | – | – | 1000 to 10000 nM | 1000 to 10000 nM | 100 to 1000 nM | < 100 nM |
| COc1cc(N2CCNCC2)c2cn(C)nc2c1C(=O)Nc1cc(F)c2nc(C)cn2c1 [Compound 250, N-(8-fluoro-2-methyl-imidazo[1,2-a]pyridin-6-yl)-6-methoxy-2-methyl-4-piperazin-1-yl-indazole-7-carboxamide] | > 10000 nM | > 10000 nM | 1000 to 10000 nM | > 10000 nM | – | – | – |
| Cc1cn2cc(NC(=O)c3ccc(N4C[C@H](C)N[C@@H](C)C4)c4[nH]cnc34)cc(F)c2n1 [Compound 221, 7-[(3S,5S)-3,5-dimethylpiperazin-1-yl]-N-(8-fluoro-2-methylimidazo[1,2-a]pyridin-6-yl)-1H-1,3-benzodiazole-4-carboxamide] | > 10000 nM | 100 to 1000 nM | < 100 nM | 1000 to 10000 nM | – | – | – |
| Cc1cn2nc(C(=O)Nc3ccc(N4C[C@@H](C)N[C@@H](C)C4)c4cc[nH]c34)cc(C)c2n1 [Compound 237, N-(4-[(3R,5S)-3,5-dimethylpiperazin-1-yl]-1H-indol-7-yl)-2,8-dimethylimidazo[1,2-b]pyridazine-6-carboxamide] | 1000 to 10000 nM | 1000 to 10000 nM | 1000 to 10000 nM | 1000 to 10000 nM | – | – | – |
| COCCN[C@@H]1CCN(c2cc(O)c(C(=O)Nc3cc(F)c4nc(C)cn4c3)c3nn(C)cc23)C1 [Compound 285, N-(8-fluoro-2-methyl-imidazo[1,2-a]pyridin-6-yl)-6-hydroxy-4-[(3R)-3-(2-methoxyethylamino)pyrrolidin-1-yl]-2-methyl-indazole-7-carboxamide] | > 10000 nM | < 100 nM | < 100 nM | 1000 to 10000 nM | – | – | – |
| Cc1cn2cc(NC(=O)c3ccc(N4CCC(NC5CC5)CC4)c4cn(C)nc34)nc2c(C)n1 [Compound 297, 4-[4-(cyclopropylamino)-1-piperidyl]-N-(6,8-dimethylimidazo[1,2-a]pyrazin-2-yl)-2-methyl-indazole-7-carboxamide] | > 10000 nM | 100 to 1000 nM | < 100 nM | 1000 to 10000 nM | – | – | – |
| CCNC1CCN(c2ccc(C(=O)Nc3cc(F)c4nc(COC)cn4c3)c3nn(C)cc23)CC1 [Compound 284, 4-[4-(ethylamino)-1-piperidyl]-N-[8-fluoro-2-(methoxymethyl)imidazo[1,2-a]pyridin-6-yl]-2-methyl-indazole-7-carboxamide] | 1000 to 10000 nM | 1000 to 10000 nM | 100 to 1000 nM | > 10000 nM | – | – | – |

The remaining lines, values ahead:

| IC50 [1, 5] | IC50 [2, 5] | IC50 [3, 5] | GI50 [4] | IC50 [1, 6] | IC50 [2, 6] | IC50 [3, 6] | Structure (SMILES) |
| --- | --- | --- | --- | --- | --- | --- | --- |
| > 10000 nM | > 10000 nM | > 10000 nM | 100 to 1000 nM | – | – | – | Cc1nc2c(F)cc(NC(=O)c3ccc(N4CCC(NC5CC5)CC4)c4cn(C)nc34)cn2c1C [Compound 189, 4-[4-(cyclopropylamino)-1-piperidyl]-N-(8-fluoro-2,3-dimethyl-imidazo[1,2-a]pyridin-6-yl)-2-methyl-indazole-7-carboxamide] |
| 1000 to 10000 nM | 100 to 1000 nM | 100 to 1000 nM | 1000 to 10000 nM | – | – | – | COCC1(N[C@@H]2CCN(c3ccc(C(=O)Nc4cc(F)c5nc(C)cn5c4)c4nn(C)cc34)C2)CC1 [Compound 119, (R)—N-(8-fluoro-2-methylimidazo[1,2-a]pyridin-6-yl)-4-(3-((1-(methoxymethyl)cyclopropyl)amino)-pyrrolidin-1-yl)-2-methyl-2H-indazole-7-carboxamide] |
| 100 to 1000 nM | < 100 nM | < 100 nM | 100 to 1000 nM | – | – | – | CN[C@@H]1CCN(c2ccc(C(=O)Nc3cc(F)c4nc(C)cn4c3)c3nn(C)cc23)[C@@H]1C (single isomer, unassigned) [Compound 153] |
| 1000 to 10000 nM | 100 to 1000 nM | < 100 nM | 100 to 1000 nM | – | – | – | Cc1cn2cc(NC(=O)c3ccc(N4CCC(NC5CC5)CC4)c4cc(C)oc34)cc(F)c2n1 [Compound 185, 4-[4-(cyclopropyl-amino)-1-piperidyl]-N-(8-fluoro-2-methyl-imidazo[1,2-a]pyridin-6-yl)-2-methyl-benzofuran-7-carboxamide] |
| 100 to 1000 nM | < 100 nM | < 100 nM | 100 to 1000 nM | – | – | – | CCNC1CCN(c2ccc(C(=O)Nc3cn4cc(C)nc4c(OC)n3)c3nn(C)cc23)CC1 [Compound 206, 4-[4-(ethylamino)-1-piperidyl]-N-(8-methoxy-2-methyl-imidazo[1,2-a]pyrazin-6-yl)-2-methyl-indazole-7-carboxamide] |
| 100 to 1000 nM | 100 to 1000 nM | < 100 nM | 100 to 1000 nM | – | – | – | CN[C@H]1CCN(c2ccc(C(=O)Nc3cc(F)c4nc(C)cn4c3)c3nn(C)nc23)C1 [Compound 163, (S)-N-(8-fluoro-2-methylimidazo-[1,2-a]pyridin-6-yl)-2-methyl-7-(3-(methylamino)pyrrolidin-1-yl)-2H-benzo[d]-[1,2,3]triazole-4-carboxamide] |
| 100 to 1000 nM | < 100 nM | < 100 nM | < 100 nM | – | – | – | Cc1cn2cc(NC(=O)c3ccc(N4CCC(NC5CC5)CC4)n4cc(C)nc34)cc(F)c2n1 [Compound 210, 5-(4-(cyclopropylamino)piperidin-1-yl)-N-(8-fluoro-2-methylimidazo[1,2-a]pyridin-6-yl)-2-methylimidazo[1,2-a]-pyridine-8-carboxamide] |
| 100 to 1000 nM | < 100 nM | < 100 nM | < 100 nM | – | – | – | COc1nc2c(C(=O)Nc3cc(F)c4nc(C)cn4c3)ccc(N3CCC(N)CC3)c2s1 [Compound 208, 7-(4-aminopiperidin-1-yl)-N-(8-fluoro-2-methylimidazo[1,2-a]pyridin-6-yl)-2-methoxybenzo[d]thiazole-4-carboxamide] |
| 100 to 1000 nM | 100 to 1000 nM | < 100 nM | 100 to 1000 nM | – | – | – | CCNC1CCN(c2ccc(C(=O)Nc3cn4cc(C)nc(C)c4n3)c3nn(C)cc23)CC1 [Compound 181, N-(6,8-dimethylimidazo [1,2-a]pyrazin-2-yl)-4-[4-(ethylamino)-1-piperidyl]-2-methyl-indazole-7-carboxamide] |
